Results reported in patent publication US10821079B2, “PKC activators and combinations thereof” (Cognitive Research Enterprises, Inc., priority 2011, dated 2020).

Assays:
PKC-ε = biological target: T1, PKC-ε (Homo sapiens, UniProt Q02156); assay: Activation of purified PKC isozymes, radiometric: PKC-ε; type: biochemical
T1 sequence (Q02156 1-737): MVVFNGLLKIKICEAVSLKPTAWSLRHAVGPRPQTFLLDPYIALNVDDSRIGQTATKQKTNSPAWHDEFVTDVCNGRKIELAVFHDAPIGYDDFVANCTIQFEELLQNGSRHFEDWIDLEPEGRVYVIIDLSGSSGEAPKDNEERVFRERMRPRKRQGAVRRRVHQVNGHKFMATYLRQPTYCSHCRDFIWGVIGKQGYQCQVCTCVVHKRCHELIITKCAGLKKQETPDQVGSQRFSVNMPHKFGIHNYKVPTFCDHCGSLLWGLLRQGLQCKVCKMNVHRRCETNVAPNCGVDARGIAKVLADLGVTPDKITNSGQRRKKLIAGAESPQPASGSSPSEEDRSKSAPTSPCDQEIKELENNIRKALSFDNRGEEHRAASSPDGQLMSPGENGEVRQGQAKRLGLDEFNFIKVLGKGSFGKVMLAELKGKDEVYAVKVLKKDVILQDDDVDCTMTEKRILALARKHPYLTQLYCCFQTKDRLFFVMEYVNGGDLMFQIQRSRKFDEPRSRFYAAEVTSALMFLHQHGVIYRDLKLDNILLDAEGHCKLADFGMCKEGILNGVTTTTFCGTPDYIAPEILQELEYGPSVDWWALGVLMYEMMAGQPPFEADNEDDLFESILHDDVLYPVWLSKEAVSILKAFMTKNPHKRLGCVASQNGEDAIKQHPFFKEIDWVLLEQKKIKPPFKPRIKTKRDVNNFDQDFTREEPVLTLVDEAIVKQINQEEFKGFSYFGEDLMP
Description: (§1) To measure PKC, 10 μl of cell homogenate or purified PKC isoform was incubated for 15 min at 37° C. in the presence of 10 μM histones, 4.89 mM CaCl2, 1.2 μg/μl phosphatidyl-L-serine, 0.18 μg/μl 1,2-dioctanoyl-sn-glycerol, 10 mM MgCl2, 20 mM HEPES (pH 7.4), 0.8 mM EDTA, 4 mM EGTA, 4% glycerol, 8 μg/ml aprotinin, 8 μg/ml leupeptin, and 2 mM benzamidine. [γ32P]ATP (0.5 μCi) was added and 32P-phosphoprotein formation was measured by adsorption onto phosphocellulose as described previously. See Nelson et al., J. Neurochemistry, 1995, 65: 2350-2357.
(§2) PKC activity of each compound was measured in the absence of diacylglycerol and phosphatidylserine and PKC-δ and PKC-ε were measured in the absence of added EGTA and CaCl2, as described by Kanno et al., J. Lipid Res., 2006, 47: 1146-1156. Low concentrations of Ca^2+ were needed because high Ca^2+ can interact with the PKC phosphatidylserine binding site and prevents activation. […] To determine their PKC isoform specificity, the compounds were pre-incubated with purified isoforms of PKC for five minutes and the PKC activity was measured radiometrically.
(§3) The activation and PKC isozyme specificity of DCPLA-ethyl ester was measured following the procedures in Example 1(B) and (C), except that 9 ng of the purified isozyme was used and it was pre-incubated for 5 minutes at room temperature (FIG. 3). PKC-ε activation by DCPLA-tert-butyl ester and DCPLA-retinyl ester was measured in the same manner as DCPLA-ethyl ester (FIG. 3).
The EC50 values, PKC specificity, and activation for a select number of DCPLA esters was determined (see Table 1). EC50 values were determined by measuring the lowest concentration that activates by 50% of maximum activation. […] The specificity and activation of PKC by the various esters of DCPLA were calculated from the measurements of activation of PKC isozymes.

PKCα = PKCα (Homo sapiens, UniProt P17252); assay: Activation of purified PKC isozymes, radiometric: PKC-α; type: biochemical
Description: To measure PKC activity, 10 μg of protein from either cytosol or membrane was incubated for 15 min at 37° C. in the presence of 10 μM histones, 4.89 mM CaCl2, 1.2 μg/μl phosphatidyl-L-serine, 0.18 μg/μl 1,2-dioctanoyl-sn-glycerol, 10 mM MgCl2, 20 mM HEPES (pH 7.4), 0.8 mM EDTA, 4 mM EGTA, 4% glycerol, 8 μg/ml aprotinin, 8 μg/ml leupeptin, 2 mM benzamidine, and 0.5 μCi of [γ-^32P]ATP. [^32P]Phosphoprotein formation was measured by adsorption onto phosphocellulose as described previously. See Nelson et al. (2009) J Biol Chem 284, 34514-34521. For measurements of activation by RA, PKC activity was measured in the absence of diacylglycerol (DAG) and phosphatidylserine, as described by Nelson et al. (2009) J Biol Chem 284, 34514-34521. PKC-δ and PKC-ε were measured in the absence of added EGTA and CaCl^2, as described by Kanno et al. (2006) J Lipid Res 47, 1146-1156. The enzyme was provided as a purified isozyme for in vitro experiments.
as §1, §2, §3

CCCCCC1CC1CC1CC1CCCCCCCC(=O)OC (stereo not drawn) [DCPLA-ME, methyl 8-(2-((2-pentylcyclopropyl)methyl)cyclopropyl)octanoate]
PKC-ε activation at peak (PKC-ε): up to 190 % of control
concentration range activating PKC-ε by more than 50% (PKC-ε): 0.01 to 10 µM
Specificity ε/α (PKC-ε; Activation of PKC-ε ÷ activation or inhibition of PKCα at 3 × EC50): 12.1
effect on PKC-α (in words) (PKCα): did not have a major effect

CC1=C(/C=C/C(C)=C/C=C/C(C)=C/C(=O)O)C(C)(C)CCC1 [RA, All-trans retinoic acid]
PKC-ε activation (in words) (PKC-ε): not activated
effect on PKC-α (in words) (PKCα): not activated
